Values joined by “and” are separate entries in the source; they are usually repeats but may differ in a detail not shown here. Equal entries are not always repeated.
Columns and labels:
huMAO-B = target: T1, huMAO-B (Homo sapiens, UniProt P27338); assay: biochemical; details: for inhibition at 10 µM: read-out: MAO-B percent inhibition rate
T1 sequence (P27338 1-520): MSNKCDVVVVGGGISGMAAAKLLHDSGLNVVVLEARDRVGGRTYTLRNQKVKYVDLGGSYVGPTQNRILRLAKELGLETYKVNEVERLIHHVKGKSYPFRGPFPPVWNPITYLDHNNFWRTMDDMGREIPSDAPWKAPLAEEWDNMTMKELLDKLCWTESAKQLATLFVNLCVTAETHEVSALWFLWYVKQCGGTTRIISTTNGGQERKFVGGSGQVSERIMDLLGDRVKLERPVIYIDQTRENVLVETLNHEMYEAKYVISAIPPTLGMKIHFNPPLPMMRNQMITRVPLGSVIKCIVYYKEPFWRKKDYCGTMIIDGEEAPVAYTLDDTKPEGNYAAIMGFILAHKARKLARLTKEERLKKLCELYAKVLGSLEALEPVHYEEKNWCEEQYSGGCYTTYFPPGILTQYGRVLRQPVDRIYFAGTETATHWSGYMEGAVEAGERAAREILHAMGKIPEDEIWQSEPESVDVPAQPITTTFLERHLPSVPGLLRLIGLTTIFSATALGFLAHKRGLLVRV

Aβ1–42 fibrils [1] = target: T2, Aβ1–42 fibrils (Homo sapiens, UniProt P05067); assay: Disaggregation of Cu2+-induced Aβ1–42 aggregation; type: biochemical; details: 25 μM; ThT assay
Aβ1–42 [2] = target: T3, Aβ1–42 (Homo sapiens, UniProt P05067); assay: Inhibition of self-induced Aβ1–42 aggregation; type: biochemical; details: read-out: Inhibition of Aβ1–42 aggregation (%) Self-induced, 25 μM; ThT assay
Aβ1–42 [3] = target: T3, Aβ1–42; assay: Inhibition of Cu2+-induced Aβ1–42 aggregation; type: biochemical; details: read-out: Inhibition of Aβ1–42 aggregation (%) Cu^2+-induced
huMAO-A = target: T4, huMAO-A (Homo sapiens, UniProt P21397); assay: huMAO-A inhibition, fluorescence method; type: biochemical; details: for inhibition at 10 µM: read-out: MAO-A percent inhibition rate
T4 sequence (P21397 1-527): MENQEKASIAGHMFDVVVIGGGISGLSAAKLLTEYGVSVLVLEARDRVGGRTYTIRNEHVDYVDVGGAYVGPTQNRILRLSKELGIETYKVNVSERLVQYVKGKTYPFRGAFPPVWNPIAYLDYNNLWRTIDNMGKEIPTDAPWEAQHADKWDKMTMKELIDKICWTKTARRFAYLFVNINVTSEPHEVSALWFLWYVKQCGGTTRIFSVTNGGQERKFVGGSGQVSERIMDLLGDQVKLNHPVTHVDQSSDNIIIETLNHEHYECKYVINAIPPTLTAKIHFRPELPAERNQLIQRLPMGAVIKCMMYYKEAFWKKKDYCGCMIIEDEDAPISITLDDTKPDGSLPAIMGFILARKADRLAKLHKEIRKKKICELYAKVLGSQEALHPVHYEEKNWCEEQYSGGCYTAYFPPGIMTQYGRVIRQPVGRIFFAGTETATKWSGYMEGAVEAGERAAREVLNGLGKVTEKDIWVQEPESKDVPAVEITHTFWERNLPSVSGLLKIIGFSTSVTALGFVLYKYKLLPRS

ratBuChE = ratBuChE (Rattus norvegicus, UniProt Q9JKC1); assay: Ellman's method, BuChE from rat serum; type: biochemical
[4] = Oxygen Radicals Absorbance Capacity by Fluorescence; details: for ORAC: Trolox as reference; for ORAC-FL value: Trolox equivalents
Aβ1–42 fibrils [5] = target: T2, Aβ1–42 fibrils; assay: Disaggregation of self-induced Aβ1–42 aggregation; type: biochemical; details: 25 μM; ThT assay
eeAChE = eeAChE (Electrophorus electricus, UniProt O42275); assay: Ellman's method, electric eel AChE; type: biochemical
ratAChE = target: T5, ratAChE (Rattus norvegicus, UniProt P37136); assay: Ellman's method, AChE from rat cortex homogenate; type: biochemical; details: for SI = Selectivity index = IC50 (BuChE)/IC50 (AChE): ratBuChE over rat AChE
T5 sequence (P37136 32-614): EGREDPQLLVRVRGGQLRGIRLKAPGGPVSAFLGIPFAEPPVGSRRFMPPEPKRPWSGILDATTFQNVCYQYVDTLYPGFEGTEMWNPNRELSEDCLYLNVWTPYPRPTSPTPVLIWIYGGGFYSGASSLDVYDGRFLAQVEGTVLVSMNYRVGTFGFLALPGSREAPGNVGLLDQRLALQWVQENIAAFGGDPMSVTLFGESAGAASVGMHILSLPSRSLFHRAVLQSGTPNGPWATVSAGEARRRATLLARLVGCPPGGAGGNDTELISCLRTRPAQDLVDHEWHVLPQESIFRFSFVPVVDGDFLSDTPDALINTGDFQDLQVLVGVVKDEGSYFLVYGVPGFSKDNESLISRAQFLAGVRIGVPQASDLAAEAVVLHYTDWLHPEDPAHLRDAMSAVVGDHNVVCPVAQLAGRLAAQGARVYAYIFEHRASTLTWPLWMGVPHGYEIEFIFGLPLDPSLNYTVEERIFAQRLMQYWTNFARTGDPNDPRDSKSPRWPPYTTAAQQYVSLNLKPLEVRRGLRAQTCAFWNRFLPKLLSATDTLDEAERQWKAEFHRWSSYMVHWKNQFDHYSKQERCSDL

[6] = Metal chelation by UV-vis spectrometry and molar ratio method; type: physicochemical; details: for shift of characteristic UV peak after adding FeSO4 and ZnCl2 / characteristic UV peak after adding AlCl3 (red shift) / characteristic UV peak after adding CuCl2 (red shift): 37.5 μM; for characteristic UV peak after adding AlCl3 (red shift) / characteristic UV peak after adding CuCl2 (red shift): peak of compound alone: 9d 362 nm, 17f 350 nm
AChE PAS (eeAChE) = AChE PAS (eeAChE) (Electrophorus electricus, UniProt O42275); assay: Propidium iodide displacement assay; type: binding, electric eel; details: read-out: Propidium iodide displacement from AChE PAS (% inhibition)
PC12 cells [7] = assay: Cytotoxicity in PC12 cells, MTT assay; type: cell-based; details: up to 50 µM
[8] = target: huAChE-induced Aβ1–40 aggregation (Homo sapiens, UniProt P22303); assay: Inhibition of huAChE-induced Aβ1–40 aggregation; type: biochemical; details: compound 100 μM, Aβ1–40 230 μM, Aβ1–40/HuAChE 100/1; ThT; mean ± SEM
AChE = assay: Kinetic characterisation of AChE inhibition; type: biochemical; details: Lineweaver-Burk plots, substrate acetylthiocholine
PC12 cells [9] = assay: Neuroprotection against H2O2-induced PC12 cell injury, LDH assay; type: cell-based; details: H2O2 alone 712.7, vehicle 602.3

T3 sequence (P05067 672-713): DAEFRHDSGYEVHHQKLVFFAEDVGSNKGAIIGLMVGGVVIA
T2 sequence (P05067 672-713): as above
Sequence of ratBuChE (Q9JKC1 24-597): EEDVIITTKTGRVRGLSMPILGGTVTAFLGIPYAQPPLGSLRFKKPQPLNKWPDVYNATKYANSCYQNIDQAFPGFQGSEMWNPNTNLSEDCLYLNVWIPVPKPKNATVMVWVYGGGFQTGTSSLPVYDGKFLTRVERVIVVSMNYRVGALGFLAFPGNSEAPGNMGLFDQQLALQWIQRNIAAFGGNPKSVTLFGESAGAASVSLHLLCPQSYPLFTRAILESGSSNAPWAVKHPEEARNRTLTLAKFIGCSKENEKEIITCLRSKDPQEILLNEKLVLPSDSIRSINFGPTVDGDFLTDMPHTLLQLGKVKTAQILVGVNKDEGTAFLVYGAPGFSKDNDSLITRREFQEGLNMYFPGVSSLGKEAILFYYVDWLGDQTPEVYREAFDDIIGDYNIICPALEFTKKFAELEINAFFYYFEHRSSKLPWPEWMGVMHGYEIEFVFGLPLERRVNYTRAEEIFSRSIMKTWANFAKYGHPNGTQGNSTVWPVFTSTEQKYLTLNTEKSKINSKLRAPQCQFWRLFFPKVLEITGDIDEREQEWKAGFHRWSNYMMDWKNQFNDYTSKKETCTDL
Sequence of eeAChE (O42275 24-633): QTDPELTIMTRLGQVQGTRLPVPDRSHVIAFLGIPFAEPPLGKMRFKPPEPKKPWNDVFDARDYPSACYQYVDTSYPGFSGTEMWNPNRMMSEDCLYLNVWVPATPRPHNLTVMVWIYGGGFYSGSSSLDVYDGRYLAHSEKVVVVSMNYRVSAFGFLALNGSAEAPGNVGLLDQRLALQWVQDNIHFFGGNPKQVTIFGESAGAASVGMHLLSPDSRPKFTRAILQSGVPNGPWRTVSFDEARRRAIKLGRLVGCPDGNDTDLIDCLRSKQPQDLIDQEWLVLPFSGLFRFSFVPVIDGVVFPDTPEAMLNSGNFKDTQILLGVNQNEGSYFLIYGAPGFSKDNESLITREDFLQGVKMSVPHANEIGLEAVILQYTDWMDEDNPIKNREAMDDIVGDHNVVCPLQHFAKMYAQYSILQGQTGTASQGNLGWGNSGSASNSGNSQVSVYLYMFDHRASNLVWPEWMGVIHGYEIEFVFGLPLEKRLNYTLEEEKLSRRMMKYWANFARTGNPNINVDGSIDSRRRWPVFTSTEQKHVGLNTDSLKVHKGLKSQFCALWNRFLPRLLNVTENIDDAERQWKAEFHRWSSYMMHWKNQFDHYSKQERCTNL
Sequence of AChE PAS (eeAChE) (O42275 24-633): as above
Sequence of huAChE-induced Aβ1–40 aggregation (P22303 32-614): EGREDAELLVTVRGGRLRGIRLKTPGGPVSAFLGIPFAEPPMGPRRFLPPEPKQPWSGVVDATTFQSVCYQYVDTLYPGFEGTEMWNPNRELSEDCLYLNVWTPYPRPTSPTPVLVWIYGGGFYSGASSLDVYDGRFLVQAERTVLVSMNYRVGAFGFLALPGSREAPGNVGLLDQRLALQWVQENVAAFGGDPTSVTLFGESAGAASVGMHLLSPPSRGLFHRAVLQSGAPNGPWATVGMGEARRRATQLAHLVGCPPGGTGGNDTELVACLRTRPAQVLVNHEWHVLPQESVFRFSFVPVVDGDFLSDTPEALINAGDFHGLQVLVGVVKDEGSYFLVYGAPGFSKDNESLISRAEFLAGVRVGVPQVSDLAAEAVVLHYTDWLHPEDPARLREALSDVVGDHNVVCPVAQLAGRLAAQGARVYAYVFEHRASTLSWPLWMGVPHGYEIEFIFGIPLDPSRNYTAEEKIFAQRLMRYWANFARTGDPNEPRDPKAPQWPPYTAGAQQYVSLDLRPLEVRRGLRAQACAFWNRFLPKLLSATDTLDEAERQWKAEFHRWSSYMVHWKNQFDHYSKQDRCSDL

| Structure (SMILES) | IC50 (huMAO-B) [µM] | Disaggregation of Aβ1–42 aggregation (%) Cu^2+-induced (Aβ1–42 fibrils [1]) | inhibition at 25 µM (Aβ1–42 [2]) [%] | inhibition at 25 µM (Aβ1–42 [3]) [%] | IC50 (huMAO-A) [µM] | IC50 (ratBuChE) [µM] | ORAC [4] | Disaggregation of Aβ1–42 aggregation (%) Self-induced (Aβ1–42 fibrils [5]) | IC50 (eeAChE) [µM] | IC50 (ratAChE) [µM] | SI = Selectivity index = IC50 (BuChE)/IC50 (AChE) (ratAChE) | inhibition at 10 µM (huMAO-A) [%] | further results |
| --- | --- | --- | --- | --- | --- | --- | --- | --- | --- | --- | --- | --- | --- |
| CCN(CCCCOc1ccc(/C=C/C(=O)c2c(O)cc(OC)c(OC)c2OC)cc1)Cc1ccccc1OC [Compound 9d, (E)-3-(4-(4-(ethyl(2-methoxybenzyl)amino)butoxy)phenyl)-1-(6-hydroxy-2,3,4-trimethoxyphenyl)prop-2-en-1-one] | 12.3 ± 0.08 | 63.2 ± 0.63% | 72.7 ± 0.02 | 72.4 ± 0.01 | 38.2 ± 0.63 | 451 ± 1.68 | 1.01 ± 0.2 μM of Trolox equivalent/μM of compounds | 33.0 ± 0.08% | 1.2 ± 0.01 | 0.32 ± 0.02 | 1409.4 |  | SI = selectivity index = IC50 (hMAO-A)/IC50 (hMAO-B) (huMAO-B): 3.1; ORAC-FL value [4]: 0.96 eq; shift of characteristic UV peak after adding FeSO4 and ZnCl2 [6]: no obvious shift; characteristic UV peak after adding AlCl3 (red shift) [6]: 376 nm; characteristic UV peak after adding CuCl2 (red shift) [6]: 444 nm |
| CCN(CCCOc1ccc(/C=C/C(=O)c2c(O)cc(OC)c(O)c2OC)cc1)Cc1ccccc1OC [Compound 17b, (E)-1-(3,6-dihydroxy-2,4-dimethoxyphenyl)-3-(4-(3-(ethyl(2-methoxybenzyl)amino)propoxy)phenyl)prop-2-en-1-one] |  | 82.8 ± 0.03% | 82.1 ± 0.01 | 90.2 ± 0.02 |  | 155 ± 5.8 | 2.9 ± 0.02 μM of Trolox equivalent/μM of compounds | 60.2 ± 0.03% | 3.16 ± 0.02 | 0.73 ± 0.01 | 212.3 | 14.6 | inhibition at 10 µM (huMAO-B): 2.1% |
| COc1ccccc1CN(C)CCCCOc1ccc(/C=C/C(=O)c2c(O)cc(OC)c(O)c2OC)cc1 [Compound 17c, (E)-1-(3,6-dihydroxy-2,4-dimethoxyphenyl)-3-(4-(4-((2-methoxybenzyl)(methyl)amino)butoxy)phenyl)prop-2-en-1-one] |  | 79.1 ± 0.15% | 68.4 ± 0.02 | 92.5 ± 0.03 | 18.3 ± 0.15 | > 500 | 2.8 ± 0.01 μM of Trolox equivalent/μM of compounds | 75.9 ± 0.03% | 3.74 ± 0.03 | 1.63 ± 0.02 | >306.7 |  | inhibition at 10 µM (huMAO-B): 11% |
| CCN(CCCCOc1ccc(/C=C/C(=O)c2c(O)cc(OC)c(O)c2OC)cc1)Cc1ccccc1OC [Compound 17d, (E)-1-(3,6-dihydroxy-2,4-dimethoxyphenyl)-3-(4-(4-(ethyl(2-methoxybenzyl)amino)butoxy)phenyl)prop-2-en-1-one] | 15.1 ± 0.16 | 79.8 ± 0.03% | 73.8 ± 0.01 | 91.7 ± 0.02 |  | 406 ± 15.2 | 3.1 ± 0.01 μM of Trolox equivalent/μM of compounds | 45.7 ± 0.16% | 3.68 ± 0.02 | 0.58 ± 0.01 | 700 | 16.7 |  |
| COc1ccccc1CN(C)CCCCCCOc1ccc(/C=C/C(=O)c2c(O)cc(OC)c(O)c2OC)cc1 [Compound 17e, (E)-1-(3,6-dihydroxy-2,4-dimethoxyphenyl)-3-(4-((6-((2-methoxybenzyl)(methyl)amino)hexyl)oxy)phenyl)prop-2-en-1-one] | 12.8 ± 0.31 | 83.7 ± 0.03% | 65.7 ± 0.03 | 96.2 ± 0.02 |  | > 500 | 3.4 ± 0.02 μM of Trolox equivalent/μM of compounds | 74.8 ± 0.31% | 2.16 ± 0.01 | 1.4 ± 0.02 | >357.1 | 17.9 |  |
| CCN(CCCCCCOc1ccc(/C=C/C(=O)c2c(O)cc(OC)c(O)c2OC)cc1)Cc1ccccc1OC [Compound 17f, (E)-1-(3,6-dihydroxy-2,4-dimethoxyphenyl)-3-(4-((6-(ethyl(2-methoxybenzyl)amino)hexyl)oxy)phenyl)prop-2-en-1-one] | 8.8 ± 0.06 | 84.5% and 84.5 ± 0.35% | 78 ± 0.02 | 93.5 ± 0.01 | 37.5 ± 0.35 | > 500 | 3.3 ± 0.01 μM of Trolox equivalent/μM of compounds | 72.3% and 72.3 ± 0.06% | 1.88 ± 0.01 |  | >1219.5 |  | inhibition at 10 µM (AChE PAS (eeAChE)): 23.9 ± 1.6%; inhibition at 50 µM (AChE PAS (eeAChE)): 34.2 ± 2.3%; SI = selectivity index = IC50 (hMAO-A)/IC50 (hMAO-B) (huMAO-B): 4.3; cytotoxicity in PC12 cells (PC12 cells [7]): did not show obvious cytotoxicity; Papp (PAMPA-BBB; PAMPA): 4.23 ± 0.37 ×10⁻⁶ cm/s; Prediction (BBB penetration) (PAMPA-BBB; PAMPA-BBB): CNS+ (Pe (×10^−6 cm/s) > 3.44 × 10^−6 cm/s possess high BBB permeation); % Inhibition of huAChE-induced Aβ aggregation [8]: 53.9 ± 3.7%; type of AChE inhibition (AChE): mixed-type AChE inhibition; LDH vitality (PC12 cells [9]; PC12, 100 µM H2O2, compound 10 µM): 621.3; LDH vitality (PC12 cells [9]; PC12, 100 µM H2O2, compound 50 µM): 549.7; ORAC-FL value [4]: 3.3 eq; shift of characteristic UV peak after adding FeSO4 and ZnCl2 [6]: no significant shift; mole fraction at break (molar ratio method, compound-Cu^2+) ([6]; 37.5 μM compound, ascending CuCl2): 1.03; characteristic UV peak after adding AlCl3 (red shift) [6]: 370 nm; characteristic UV peak after adding CuCl2 (red shift) [6]: 422 nm |
| Cc1c(C)c2c(c(C)c1O)CC[C@@](C)(CCC[C@H](C)CCC[C@H](C)CCCC(C)C)O2 [Vitamin E, α-tocopherol, reference compound] |  |  |  |  |  |  | 2.6 ± 0.06 μM of Trolox equivalent/μM of compounds |  |  |  |  |  | LDH vitality (PC12 cells [9]; PC12, 100 µM H2O2, compound 100 µM): 654.7 |
